Experiment [1] has as its target full-length human PRMT6 (Flag- and His-tagged) (Homo sapiens, UniProt Q96LA8). Kind of experiment: PRMT6 biochemical assay (3H-SAM Flashplate, histone H4 36-50 K44me1 peptide). The following applies: 1 nM PRMT6, 30 min preincubation, 75 nM peptide. From the text: S-adenosylmethionine (SAM), S-adenosylhomocysteine (SAH), bicine, Tween20, dimethylsulfoxide (DMSO), bovine skin gelatin (BSG), sodium butyrate and Tris(2-carboxyethyl)phosphine hydrochloride solution (TCEP) were purchased from Sigma-Aldrich at the highest level of purity possible. ^3H-SAM was purchase from American Radiolabeled Chemicals with a specific activity of 80 Ci/mmol. 384-well streptavidin Flashplates were purchased from PerkinElmer.
Peptide representative of human histone H4 residues 36-50 was synthesized with an N-terminal linker-affinity tag motif and a C-terminal amide cap by 21st Century Biochemicals. The peptide was purified by high-performance liquid chromatography (HPLC) to greater than 95% purity and confirmed by liquid chromatography mass spectrometry (LC-MS). The sequence was Biot-Ahx-[…]-amide and contained a monomethylated lysine at position 44 (SEQ ID NO.:5).
Full-length human PRMT6 (NM_018137.2) transcript clone was amplified from an HEK 293 cDNA library, incorporating a flanking 5′ sequence encoding a FLAG tag ([…]) (SEQ ID NO.:6) fused directly to Ser 2 of PRMT6 and a 3′ sequence encoding a hexa His sequence (HHHHHH) (SEQ ID NO.: 17) fused directly to Asp 375. The amplified gene was subcloned into pFastBacMam (Viva Biotech).
Recombinant baculovirus were generated according to Bac-to-Bac kit instructions (Life Technologies). […] Infections were carried out at 37° C. for 48 hours, harvested by centrifugation, and stored at −80° C. for purification.
Column was washed with 20 mM imidazole in the same buffer and Flag-PRMT6-His was eluted with 150 mM imidazole. Pooled fractions were dialysed against buffer Ni-A and further purified by anti-flag M2 affinity chromatography. Flag-PRMT6-His was eluted with 200 ug/ml FLAG peptide in the same buffer. Pooled fractions were dialysed in 20 mM Tris, 150 mM NaCl, 10% glycerol and 5 mM β-mercaptoethanol, pH 7.8. The purity of recovered protein was 95%.
General Procedure for PRMT6 Enzyme Assays on Peptide Substrates.
The assays were all performed in a buffer consisting of 20 mM Bicine (pH=7.6), 1 mM TCEP, 0.005% BSG, and 0.002% Tween 20, prepared on the day of use. Compounds in 100% DMSO (1 ul) were spotted into a polypropylene 384-well V-bottom plates (Greiner) using a Platemate Plus outfitted with a 384-channel head (Thermo Scientific). DMSO (1 ul) was added to Columns 11, 12, 23, 24, rows A-H for the maximum signal control and 1 ul of SAH, a known product and inhibitor of PRMT6, was added to columns 11, 12, 23, 24, rows I-P for the minimum signal control. A cocktail (40 ul) containing the PRMT6 enzyme was added by Multidrop Combi (Thermo-Fisher). The compounds were allowed to incubate with PRMT6 for 30 min at room temperature, then a cocktail (10 ul) containing SAM and peptide was added to initiate the reaction (final volume=51 ul). The final concentrations of the components were as follows: PRMT6 was 1 nM, ^3H-SAM was 200 nM, non-radiolabeled SAM was 250 nM, peptide was 75 nM, SAH in the minimum signal control wells was 1 mM, and the DMSO concentration was 2%. The assays were stopped by the addition of non-radiolabeled SAM (10 ul) to a final concentration of 400 uM, which dilutes the ^3H-SAM to a level where its incorporation into the peptide substrate is no longer detectable. 50 ul of the reaction in the 384-well polypropylene plate was then transferred to a 384-well Flashplate and the biotinylated peptides were allowed to bind to the streptavidin surface for at least 1 hour before being washed once with 0.1% Tween20 in a Biotek ELx405 plate washer. The plates were then read in a PerkinElmer TopCount plate reader to measure the quantity of ^3H-labeled peptide bound to the Flashplate surface, measured as disintegrations per minute (dpm) or alternatively, referred to as counts per minute (cpm).
(§1) Where dpm=disintegrations per minute, cmpd=signal in assay well, and min and max are the respective minimum and maximum signal controls. […]

The target of experiment [2] is T1, full-length human PRMT1 isoform 1 (GST-tagged) (Homo sapiens, UniProt Q99873).
T1 construct: GST-tagged PRMT1 was eluted with 50 mM Tris, 2 mM glutathione, pH 7.8, dialysed in buffer A and concentrated; made in house; host or cells: High Five insect cells (baculovirus)
Kind of experiment: PRMT1 biochemical assay (3H-SAM Flashplate, histone H4 36-50 peptide). The following applies: 0.5 nM PRMT1, 30 min preincubation, 20 nM peptide.
Text: S-adenosylmethionine (SAM), S-adenosylhomocysteine (SAH), bicine, Tween20, dimethylsulfoxide (DMSO), bovine skin gelatin (BSG), and Tris(2-carboxyethyl)phosphine hydrochloride solution (TCEP) were purchased from Sigma-Aldrich at the highest level of purity possible. ^3H-SAM was purchase from American Radiolabeled Chemicals with a specific activity of 80 Ci/mmol. 384-well streptavidin Flashplates were purchased from PerkinElmer.
Peptide representative of human histone H4 residues 36-50 was synthesized with an N-terminal linker-affinity tag motif and a C-terminal amide cap by 21st Century Biochemicals. The peptide was purified by high-performance liquid chromatography (HPLC) to greater than 95% purity and confirmed by liquid chromatography mass spectrometry (LC-MS). The sequence was Biot-Ahx-[…]-amide (SEQ ID NO.:1).
Full-length human PRMT1 isoform 1 (NM_001536.5) transcript clone was amplified from an HEK 293 cDNA library, incorporating flanking 5′ sequence encoding a FLAG tag ([…]) (SEQ ID NO.:2) fused directly to Met 1 of PRMT1. The amplified gene was subcloned into pFastBacI (Life Technologies) modified to encode an N-terminal GST tag and a TEV cleavage sequence
Recombinant baculovirus were generated according to Bac-to-Bac kit instructions (Life Technologies). Protein over-expression was accomplished by infecting exponentially growing High Five insect cell culture at 1.5×10^6 cell/ml with 1:100 ratio of virus. Infections were carried out at 27° C. for 48 hours, harvested by centrifugation, and stored at −80° C. for purification.
GST-tagged PRMT1 was eluted with 50 mM Tris, 2 mM glutathione, pH 7.8, dialysed in buffer A and concentrated to 1 mg/mL. The purity of recovered protein was 73%. Reference: Wasilko, D. J. and S. E. Lee: “TIPS: titerless infected-cells preservation and scale-up” Bioprocess J., 5 (2006), pp. 29-32.
General Procedure for PRMT1 Enzyme Assays on Peptide Substrates.
The assays were all performed in a buffer consisting of 20 mM Bicine (pH=7.6), 1 mM TCEP, 0.005% BSG, and 0.002% Tween 20, prepared on the day of use. Compounds in 100% DMSO (1 ul) were spotted into a polypropylene 384-well V-bottom plates (Greiner) using a Platemate Plus outfitted with a 384-channel head (Thermo Scientific). DMSO (1 ul) was added to Columns 11, 12, 23, 24, rows A-H for the maximum signal control and 1 ul of SAH, a known product and inhibitor of PRMT1, was added to columns 11, 12, 23, 24, rows I-P for the minimum signal control. A cocktail (40 ul) containing the PRMT1 enzyme was added by Multidrop Combi (Thermo-Fisher). The compounds were allowed to incubate with PRMT1 for 30 min at room temperature, then a cocktail (10 ul) containing SAM and peptide was added to initiate the reaction (final volume=51 ul). The final concentrations of the components were as follows: PRMT1 was 0.5 nM, ^3H-SAM was 200 nM, non-radiolabeled SAM was 1.5 uM, peptide was 20 nM, SAH in the minimum signal control wells was 1 mM, and the DMSO concentration was 2%. The assays were stopped by the addition of non-radiolabeled SAM (10 ul) to a final concentration of 300 uM, which dilutes the ^3H-SAM to a level where its incorporation into the peptide substrate is no longer detectable. 50 ul of the reaction in the 384-well polypropylene plate was then transferred to a 384-well Flashplate and the biotinylated peptides were allowed to bind to the streptavidin surface for at least 1 hour before being washed once with 0.1% Tween20 in a Biotek ELx405 plate washer. The plates were then read in a PerkinElmer TopCount plate reader to measure the quantity of ^3H-labeled peptide bound to the Flashplate surface, measured as disintegrations per minute (dpm) or alternatively, referred to as counts per minute (cpm).
as §1

Structures are written as SMILES. Where only a bound is given, the exact number is not on record here.

Sequence of full-length human PRMT6 (Flag- and His-tagged) (Q96LA8 with tags, fused parts or gaps): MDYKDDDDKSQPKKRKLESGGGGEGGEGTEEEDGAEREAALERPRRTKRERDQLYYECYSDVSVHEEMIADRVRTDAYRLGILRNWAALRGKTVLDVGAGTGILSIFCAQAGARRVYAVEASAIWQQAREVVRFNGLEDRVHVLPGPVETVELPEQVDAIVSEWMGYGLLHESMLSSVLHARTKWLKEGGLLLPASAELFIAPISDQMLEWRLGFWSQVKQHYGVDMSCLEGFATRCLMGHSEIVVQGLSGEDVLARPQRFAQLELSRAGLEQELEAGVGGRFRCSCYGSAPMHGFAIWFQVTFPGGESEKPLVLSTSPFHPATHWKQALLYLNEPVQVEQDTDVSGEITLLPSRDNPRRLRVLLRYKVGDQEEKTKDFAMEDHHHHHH
T1 sequence (Q99873 with tags, fused parts or gaps): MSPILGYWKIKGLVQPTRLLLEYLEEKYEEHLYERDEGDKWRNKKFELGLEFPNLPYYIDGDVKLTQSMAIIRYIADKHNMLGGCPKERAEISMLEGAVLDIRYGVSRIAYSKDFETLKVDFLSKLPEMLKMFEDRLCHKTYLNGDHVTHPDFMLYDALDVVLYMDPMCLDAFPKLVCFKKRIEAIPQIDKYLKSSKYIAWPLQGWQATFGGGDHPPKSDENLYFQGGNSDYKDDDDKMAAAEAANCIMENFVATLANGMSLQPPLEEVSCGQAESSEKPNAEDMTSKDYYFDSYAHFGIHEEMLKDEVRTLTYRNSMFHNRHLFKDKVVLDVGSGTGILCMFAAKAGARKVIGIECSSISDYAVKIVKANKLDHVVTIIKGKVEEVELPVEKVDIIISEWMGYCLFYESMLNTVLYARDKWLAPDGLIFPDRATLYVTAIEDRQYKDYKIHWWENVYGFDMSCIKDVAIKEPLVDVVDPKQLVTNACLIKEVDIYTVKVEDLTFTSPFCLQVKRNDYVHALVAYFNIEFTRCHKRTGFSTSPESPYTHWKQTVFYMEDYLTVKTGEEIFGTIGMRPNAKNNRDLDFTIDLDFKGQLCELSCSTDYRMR

For the molecule `CNCCN(C)Cc1c([C@H]2CC[C@@]3(CC2)CC(C)(C)CO3)nnn1C` [compound 53], the IC50 in experiment [1] is > 10000 nM; in experiment [2], 5850 nM.

Take `CNCCN(C)Cc1c([C@H]2CC[C@]3(CC2)CC(C)(C)CO3)nnn1C` [compound 54]: the IC50 in experiment [1] was 9920 nM; in experiment [2], 9310 nM.

On to `CN(CCN)Cc1cn(C)nc1[C@H]1CC[C@@]2(CC1)CC(C)(C)CO2` [compound 55], for which the results for the half-inhibitory concentration (IC50) in experiment [1] and in experiment [2] were 191 nM and 7.28 nM, respectively.

In the case of `CN(CCN)Cc1cn(C)nc1[C@H]1CC[C@]2(CC1)CC(C)(C)CO2` [compound 56], the IC50 in experiment [1] turned out to be 850 nM; in experiment [2] it was 31 nM.

These data come from patent publication US20170291905A1, “ARGININE […] INHIBITORS AND USES THEREOF” (Epizyme, Inc., priority 2014, published 2017).
